Biological target: T1, PDE5A1 (human PDE5 from platelets) (Homo sapiens, UniProt O76074)
T1 construct: from tissue; host or cells: platelets from fresh blood of human donors (10,000 g supernatant of sonified platelets)
Assay: Inhibition of type 5 phosphodiesterase (PDE5) activity, modified SPA test
Assay type: biochemical
Settings: PDE5-containing human platelet lysate, 0.5 μM cGMP, value classes, read-out: PDE5A1 inhibitory values [measured as −logIC50 (mol/l)] (converted)
Experimental: Method for Measuring Inhibition of the Type 5 Phosphodiesterase (PDE5) Activity:
As a source for human PDE5, platelets are used. For that purpose, 150 ml fresh blood from human donors anticoagulated with citrate [final concentration 0.3% (w/v)] is centrifuged at 200 g for 10 min to obtain the so-called platelet-rich-plasma (PRP) as a supernatant. 1/10 volume of ACD solution (85 mM Na3-citrate, 111 mM D-glucose, 71 mM citric acid, pH 4.4) is added to 9/10 volume of PRP. After centrifugation (1,400 g, 10 min) the cell pellet is resuspended in 3 ml homogenization buffer (NaCl 140 mM, KCl 3.8 mM, EGTA (ethylene glycol tetraacetic acid) 1 mM, MgCl2 1 mM, Tris-HCl 20 mM, beta-mercaptoethanol 1 mM, pH 8.2) plus protease-inhibitor mix giving rise to the final concentrations of 0.5 mM Pefablock (Roche), 10 μM Leupeptin, 5 μM Trypsininhibitor, 2 mM Benzamidin and 10 μM Pepstatin A. The suspension is sonified and thereafter centrifuged for 15 min at 10,000 g. The resulting supernatant (platelet lysate) is used for enzymatic testings.
PDE5A1 activity is inhibited by the compounds of the present subject matter in a modified SPA (scintillation proximity assay) test, supplied by Amersham Biosciences (see procedural instructions “phosphodiesterase [3H]cAMP SPA enzyme assay, code TRKQ 7090”), carried out in 96-well microtitre plates (MTP's). The test volume is 100 μl and contains 20 mM Tris buffer (pH 7.4), 0.1 mg of BSA (bovine serum albumin)/ml, 5 mM Mg^2+, 1 μM motapizone, 10 nM PDE2 inhibitor 2-(3,4-dimethoxybenzyl)-7-[(1R,2R)-2-hydroxy-1-(2-phenylethyl)propyl]-5-methylimidazo[5,1-t][1,2,4]triazin-4(3H)-one, 0.5 μM cGMP (cyclic guanosine monophosphate) (including about 50,000 cpm of [3H]cGMP as a tracer), 1 μl of the respective compound dilution in dimethylsulfoxide (DMSO) and sufficient PDE5-containing platelet lysat (10,000×g supernatant, see above) to ensure that 10-20 wt % of the cGMP is converted under the said experimental conditions. […] After a preincubation of 5 min at 37° C., the reaction is started by adding the substrate (cGMP) and the assay is incubated for a further 15 min; after that, it is stopped by adding SPA beads (50 μl). In accordance with the manufacturer's instructions, the SPA beads had previously been resuspended in water, but are then diluted 1:3 (v/v) in water; the diluted solution also contains 3 mM 8-methoxymethyl-3-isobutyl-1-methylxanthine (IBMX) to ensure a complete PDE activity stop. After the beads have been sedimented (>30 min), the MTP's are analyzed in commercially available luminescence detection devices. The corresponding IC50 values of the compounds for the inhibition of PDE activity are determined from the concentration-effect curves by means of non-linear regression.

SMILES | IC50 [nM]
COCC(=O)N[C@H]1CC[C@@H](NC(=O)c2c(C)[nH]c3c(-c4ccc(OC)cc4OCC4CC4)ccnc23)CC1 [Example E39, 7-[2-(Cyclopropylmethoxy)-4-methoxyphenyl]-N-{cis-4-[(methoxyacetyl)amino]cyclohexyl}-2-methyl-1H-pyrrolo[3,2-b]pyridine-3-carboxamide] | 1 to 10
CCC(=O)N[C@H]1CC[C@H](NC(=O)c2c(C)[nH]c3c(-c4cc(F)ccc4OCC4CC4)ccnc23)CC1 [Example E23, 7-[2-(Cyclopropylmethoxy)-5-fluorophenyl]-2-methyl-N-[trans-4-(propanoylamino)cyclohexyl]-1H-pyrrolo[3,2-b]pyridine-3-carboxamide] | < 1
COc1ccc(OCC2CC2)c(-c2ccnc3c(C(=O)N[C@@H]4CN(C(C)=O)C[C@H]4O)c(C)[nH]c23)c1 (relative stereo) [Example E49, N-[(3R*,4R*)-1-Acetyl-4-hydroxypyrrolidin-3-yl]-7-[2-(cyclopropylmethoxy)-5-methoxyphenyl]-2-methyl-1H-pyrrolo[3,2-b]pyridine-3-carboxamide] | 1 to 10
CC(=O)N[C@H]1CC[C@@H](NC(=O)c2c(C)[nH]c3c(-c4ccc(F)cc4OCC4CC4)ccnc23)CC1 [Example E16, N-[cis-4-(Acetylamino)cyclohexyl]-7-[2-(cyclopropylmethoxy)-4-fluorophenyl]-2-methyl-1H-pyrrolo[3,2-b]pyridine-3-carboxamide] | 1 to 10
CC(=O)N[C@H]1CC[C@@H](NC(=O)c2c(C)[nH]c3c(-c4cc(C)ccc4OCC4CC4)ccnc23)CC1 [Example E58, N-[cis-4-(Acetylamino)cyclohexyl]-7-[2-(cyclopropylmethoxy)-5-methylphenyl]-2-methyl-1H-pyrrolo[3,2-b]pyridine-3-carboxamide] | 1 to 10
COCC(=O)N1CC[C@@H](NC(=O)c2c(C)[nH]c3c(-c4cc(F)ccc4OCC4CC4)ccnc23)[C@H](O)C1 (relative stereo) [Example E30, 7-[2-(Cyclopropylmethoxy)-5-fluorophenyl]-N-[(3R*,4R*)-3-hydroxy-1-(methoxyacetyl)piperidin-4-yl]-2-methyl-1H-pyrrolo[3,2-b]pyridine-3-carboxamide] | 1 to 10
COc1cc(-c2ccnc3c(C(=O)N[C@@H]4CN(C(C)=O)C[C@H]4O)c(C)[nH]c23)c(OCC2CC2)cc1F (relative stereo) [Example E70, N-[(3R*,4R*)-1-Acetyl-4-hydroxypyrrolidin-3-yl]-7-[2-(cyclopropylmethoxy)-4-fluoro-5-methoxyphenyl]-2-methyl-1H-pyrrolo[3,2-b]pyridine-3-carboxamide] | < 1
COc1ccc(OCC2CC2)c(-c2ccnc3c(C(=O)N[C@H]4CC[C@H](NC(C)=O)CC4)c(C)[nH]c23)c1 [Example E43, N-[trans-4-(Acetylamino)cyclohexyl]-7-[2-(cyclopropylmethoxy)-5-methoxyphenyl]-2-methyl-1H-pyrrolo[3,2-b]pyridine-3-carboxamide] | < 1
CCC(=O)N1CC[C@@H](NC(=O)c2c(C)[nH]c3c(-c4cc(OC)c(F)cc4OCC4CC4)ccnc23)[C@H](O)C1 (relative stereo) [Example E74, 7-[2-(Cyclopropylmethoxy)-4-fluoro-5-methoxyphenyl]-N-[(3R*,4R*)-3-hydroxy-1-propanoylpiperidin-4-yl]-2-methyl-1H-pyrrolo[3,2-b]pyridine-3-carboxamide] | < 1
CC(=O)N[C@H]1CC[C@H](NC(=O)c2c(C)[nH]c3c(-c4ccc(F)cc4OCC4CC4)ccnc23)CC1 [Example E13, N-[trans-4-(Acetylamino)cyclohexyl]-7-[2-(cyclopropylmethoxy)-4-fluorophenyl]-2-methyl-1H-pyrrolo[3,2-b]pyridine-3-carboxamide] | < 1
CCC(=O)N[C@H]1CC[C@@H](NC(=O)c2c(C)[nH]c3c(-c4ccc(OC)cc4OCC4CC4)ccnc23)CC1 [Example E38, 7-[2-(Cyclopropylmethoxy)-4-methoxyphenyl]-2-methyl-N-[cis-4-(propanoylamino)cyclohexyl]-1H-pyrrolo[3,2-b]pyridine-3-carboxamide] | < 1
COCC(=O)N1CCC(NC(=O)c2c(C)[nH]c3c(-c4ccc(OC)cc4OCC4CC4)ccnc23)CC1 [Example E33, 7-[2-(Cyclopropylmethoxy)-4-methoxyphenyl]-N-[1-(methoxyacetyl)piperidin-4-yl]-2-methyl-1H-pyrrolo[3,2-b]pyridine-3-carboxamide] | < 1
COCC(=O)N[C@H]1CC[C@@H](NC(=O)c2c(C)[nH]c3c(-c4cc(OC)ccc4OCC4CC4)ccnc23)CC1 [Example E48, 7-[2-(Cyclopropylmethoxy)-5-methoxyphenyl]-N-{cis-4-[(methoxyacetyl)amino]cyclohexyl}-2-methyl-1H-pyrrolo[3,2-b]pyridine-3-carboxamide] | 1 to 10
CCC(=O)N1CCC(NC(=O)c2c(C)[nH]c3c(-c4cc(F)ccc4OCC4CC4)ccnc23)CC1 [Example E20, 7-[2-(Cyclopropylmethoxy)-5-fluorophenyl]-2-methyl-N-(1-propanoylpiperidin-4-yl)-1H-pyrrolo[3,2-b]pyridine-3-carboxamide] | < 1
COc1ccc(OCC2CC2)c(-c2ccnc3c(C(=O)N[C@H]4CC[C@@H](NC(C)=O)CC4)c(C)[nH]c23)c1 [Example E46, N-[cis-4-(Acetylamino)cyclohexyl]-7-[2-(cyclopropylmethoxy)-5-methoxyphenyl]-2-methyl-1H-pyrrolo[3,2-b]pyridine-3-carboxamide] | < 1

Next, values leading:

IC50 [nM] | SMILES
< 1 | COc1ccc(-c2ccnc3c(C(=O)NC4CCN(C(=O)[C@H](C)O)CC4)c(C)[nH]c23)c(OCC2CC2)c1 [Example F21, 7-[2-(Cyclopropylmethoxy)-4-methoxyphenyl]-N-{1-[(2S)-2-hydroxypropanoyl]piperidin-4-yl}-2-methyl-1H-pyrrolo[3,2-b]pyridine-3-carboxamide]
< 1 | COc1ccc(-c2ccnc3c(C(=O)N[C@H]4CC[C@H](NC(=O)CO)CC4)c(C)[nH]c23)c(OCC2CC2)c1 [Example F22, 7-[2-(Cyclopropylmethoxy)-4-methoxyphenyl]-N-{trans-4-[(hydroxyacetyl)amino]cyclohexyl}-2-methyl-1H-pyrrolo[3,2-b]pyridine-3-carboxamide]
< 1 | COc1cc(-c2ccnc3c(C(=O)N[C@H]4CC[C@@H](NC(=O)CO)CC4)c(C)[nH]c23)c(OCC2CC2)cc1F [Example F44, 7-[2-(Cyclopropylmethoxy)-4-fluoro-5-methoxyphenyl]-N-{cis-4-[(hydroxyacetyl)amino]cyclohexyl}-2-methyl-1H-pyrrolo[3,2-b]pyridine-3-carboxamide]
1 to 10 | Cc1ccc(OCC2CC2)c(-c2ccnc3c(C(=O)N[C@H]4CC[C@H](NC(=O)[C@H](C)O)CC4)c(C)[nH]c23)c1 [Example F37, 7-[2-(Cyclopropylmethoxy)-5-methylphenyl]-N-(trans-4-{[(2S)-2-hydroxypropanoyl]amino}cyclohexyl)-2-methyl-1H-pyrrolo[3,2-b]pyridine-3-carboxamide]
1 to 10 | Cc1[nH]c2c(-c3cc(F)ccc3OCC3CC3)ccnc2c1C(=O)N[C@H]1CC[C@@H](NC(=O)[C@H](C)O)CC1 [Example F17, 7-[2-(Cyclopropylmethoxy)-5-fluorophenyl]-N-(cis-4-{[abs.(2S)-2-hydroxypropanoyl]amino}cyclohexyl)-2-methyl-1H-pyrrolo[3,2-b]pyridine-3-carboxamide]
< 1 | COc1cc(-c2ccnc3c(C(=O)NC4CCN(C(=O)CO)CC4)c(C)[nH]c23)c(OCC2CC2)cc1F [Example F40, 7-[2-(Cyclopropylmethoxy)-4-fluoro-5-methoxyphenyl]-N-[1-(hydroxyacetyl)piperidin-4-yl]-2-methyl-1H-pyrrolo[3,2-b]pyridine-3-carboxamide]
< 1 | COc1ccc(-c2ccnc3c(C(=O)NC4CCN(C(=O)CO)CC4)c(C)[nH]c23)c(OCC2CC2)c1 [Example F20, 7-[2-(Cyclopropylmethoxy)-4-methoxyphenyl]-N-[1-(hydroxyacetyl)piperidin-4-yl]-2-methyl-1H-pyrrolo[3,2-b]pyridine-3-carboxamide]

Reference: patent US8816085B2 (Takeda GmbH, priority 2009, dated 2014)
